{"source": "the supplement of paper PMC10307832", "test_in_all_cases": "relative viability (nuclei count vs DMSO), 5 days (fraction); higher = more cells survive", "key": {"201T": {"tested_on": "201T", "outline": "(§1)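 Lung cancer cell lines in 1536-well plates got either a single drug or a fixed anchor-drug dose together with five library-drug doses (not always all listed) in √10 steps, by pin tool, on the day after seeding. Nuclei were counted after 5 days, and relative viability is the treated-to-vehicle ratio of nuclei counts. Values are medians of duplicate plates.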"}, "BEN": {"tested_on": "BEN", "outline": "as §1"}, "CAL-12T": {"tested_on": "CAL-12T", "outline": "as §1"}, "HCC-827": {"tested_on": "HCC-827", "outline": "as §1"}, "LCLC-103H": {"tested_on": "LCLC-103H", "outline": "as §1"}, "LCLC-97TM1": {"tested_on": "LCLC-97TM1", "outline": "as §1"}, "LXF-289": {"tested_on": "LXF-289", "outline": "as §1"}, "NCI-H1395": {"tested_on": "NCI-H1395", "outline": "as §1"}, "NCI-H1437": {"tested_on": "NCI-H1437", "outline": "as §1"}, "NCI-H1650": {"tested_on": "NCI-H1650", "outline": "as §1"}, "NCI-H1792": {"tested_on": "NCI-H1792", "outline": "as §1"}}}
{"molecule": "COc1cc2nccc(Oc3ccc(NC(=O)Nc4cc(C)on4)c(Cl)c3)c2cc1OC", "note": "[Tivozanib] + O=C(c1cc(Cc2n[nH]c(=O)c3ccccc23)ccc1F)N1CCN(C(=O)C2CC2)CC1 [Olaparib] (partner 8 µM)", "values": [{"measurement": "relative viability", "setting": "201T; first compound 0.005 µM", "value": 0.826}, {"measurement": "relative viability", "setting": "201T; first compound 0.01581 µM", "value": 0.853}, {"measurement": "relative viability", "setting": "201T; first compound 0.05 µM", "value": 0.821}, {"measurement": "relative viability", "setting": "201T; first compound 0.1581 µM", "value": 0.875}, {"measurement": "relative viability", "setting": "201T; first compound 0.5 µM", "value": 0.868}, {"measurement": "relative viability", "setting": "BEN; first compound 0.005 µM", "value": 0.979}, {"measurement": "relative viability", "setting": "BEN; first compound 0.01581 µM", "value": 1.09}, {"measurement": "relative viability", "setting": "BEN; first compound 0.05 µM", "value": 1.07}, {"measurement": "relative viability", "setting": "BEN; first compound 0.1581 µM", "value": 1.03}, {"measurement": "relative viability", "setting": "BEN; first compound 0.5 µM", "value": 0.888}, {"measurement": "relative viability", "setting": "CAL-12T; first compound 0.005 µM", "value": 0.666}, {"measurement": "relative viability", "setting": "CAL-12T; first compound 0.01581 µM", "value": 0.654}, {"measurement": "relative viability", "setting": "CAL-12T; first compound 0.05 µM", "value": 0.75}, {"measurement": "relative viability", "setting": "CAL-12T; first compound 0.1581 µM", "value": 0.812}, {"measurement": "relative viability", "setting": "CAL-12T; first compound 0.5 µM", "value": 0.584}, {"measurement": "relative viability", "setting": "HCC-827; first compound 0.005 µM", "value": 0.572}, {"measurement": "relative viability", "setting": "HCC-827; first compound 0.01581 µM", "value": 0.719}, {"measurement": "relative viability", "setting": "HCC-827; first compound 0.05 µM", "value": 0.623}, {"measurement": "relative viability", "setting": "HCC-827; first compound 0.1581 µM", "value": 0.612}, {"measurement": "relative viability", "setting": "HCC-827; first compound 0.5 µM", "value": 0.623}, {"measurement": "relative viability", "setting": "LCLC-103H; first compound 0.005 µM", "value": 0.785}, {"measurement": "relative viability", "setting": "LCLC-103H; first compound 0.01581 µM", "value": 0.783}, {"measurement": "relative viability", "setting": "LCLC-103H; first compound 0.05 µM", "value": 0.734}, {"measurement": "relative viability", "setting": "LCLC-103H; first compound 0.1581 µM", "value": 0.791}, {"measurement": "relative viability", "setting": "LCLC-103H; first compound 0.5 µM", "value": 0.853}, {"measurement": "relative viability", "setting": "LCLC-97TM1; first compound 0.005 µM", "value": 0.35}, {"measurement": "relative viability", "setting": "LCLC-97TM1; first compound 0.01581 µM", "value": 0.34}, {"measurement": "relative viability", "setting": "LCLC-97TM1; first compound 0.05 µM", "value": 0.321}, {"measurement": "relative viability", "setting": "LCLC-97TM1; first compound 0.1581 µM", "value": 0.427}, {"measurement": "relative viability", "setting": "LCLC-97TM1; first compound 0.5 µM", "value": 0.436}, {"measurement": "relative viability", "setting": "LXF-289; first compound 0.005 µM", "value": 0.984}, {"measurement": "relative viability", "setting": "LXF-289; first compound 0.01581 µM", "value": 0.994}, {"measurement": "relative viability", "setting": "LXF-289; first compound 0.05 µM", "value": 1.09}, {"measurement": "relative viability", "setting": "LXF-289; first compound 0.1581 µM", "value": 1.13}, {"measurement": "relative viability", "setting": "LXF-289; first compound 0.5 µM", "value": 0.99}, {"measurement": "relative viability", "setting": "NCI-H1395; first compound 0.005 µM", "value": 0.421}, {"measurement": "relative viability", "setting": "NCI-H1395; first compound 0.01581 µM", "value": 0.443}, {"measurement": "relative viability", "setting": "NCI-H1395; first compound 0.05 µM", "value": 0.476}, {"measurement": "relative viability", "setting": "NCI-H1395; first compound 0.1581 µM", "value": 0.484}, {"measurement": "relative viability", "setting": "NCI-H1395; first compound 0.5 µM", "value": 0.422}, {"measurement": "relative viability", "setting": "NCI-H1437; first compound 0.005 µM", "value": 0.613}, {"measurement": "relative viability", "setting": "NCI-H1437; first compound 0.01581 µM", "value": 0.628}, {"measurement": "relative viability", "setting": "NCI-H1437; first compound 0.05 µM", "value": 0.658}, {"measurement": "relative viability", "setting": "NCI-H1437; first compound 0.1581 µM", "value": 0.613}, {"measurement": "relative viability", "setting": "NCI-H1437; first compound 0.5 µM", "value": 0.584}, {"measurement": "relative viability", "setting": "NCI-H1650; first compound 0.005 µM", "value": 0.714}, {"measurement": "relative viability", "setting": "NCI-H1650; first compound 0.01581 µM", "value": 0.94}, {"measurement": "relative viability", "setting": "NCI-H1650; first compound 0.05 µM", "value": 0.855}, {"measurement": "relative viability", "setting": "NCI-H1650; first compound 0.1581 µM", "value": 0.837}, {"measurement": "relative viability", "setting": "NCI-H1650; first compound 0.5 µM", "value": 0.863}, {"measurement": "relative viability", "setting": "NCI-H1792; first compound 0.005 µM", "value": 0.313}, {"measurement": "relative viability", "setting": "NCI-H1792; first compound 0.01581 µM", "value": 0.46}, {"measurement": "relative viability", "setting": "NCI-H1792; first compound 0.05 µM", "value": 0.516}, {"measurement": "relative viability", "setting": "NCI-H1792; first compound 0.5 µM", "value": 0.294}]}
